Where two headings read alike, the source gives them in different places.
What was measured:
[1] = McPhail test for progestagenic activity in vivo; settings: read-out: McPhail ED50
[2] = system: human progesterone (P) receptor; test: Relative progesterone receptor binding affinity, cytoplasmic receptors of MCF-7 cells; settings: relative to (16α)-16-ethyl-21-hydroxy-19-norpregn-4-ene-3,20-dione, 16 h, 4° C
ovariectomised rats = test: Prevention of ovariectomy-induced bone loss in rats (anti-osteoporosis test, pQCT trabecular bone mineral density); assay type: in vivo, rat (female Wistar); settings: Rattus norvegicus, 672 h, read-out: Osteoporosis ED50
Text: Ovariectomy induces in rats bone loss, which is due to oestrogen deficiency. Administration of oestrogenic compounds prevents this effect. The test is used to evaluate a compound for anti-osteoporotic activity in ovariectomised rats. The effect on bone mass can be evaluated by peripheral Quantitave Computed Tomography (pQCT) measurement of trabecular bone mineral density.
Mature virgin female Wistar rats preferentially, 225-250 g. Strain: Hsd/Cpd:Wu, SPF-bred by Harlan, CPB, Zeist, The Netherlands.
On day 1 of the experiment the rats are weighed and distributed over the cages in order of body weight. The rat with the lowest body weight in the first cage and the heaviest rat in the last cage. Treatments are randomized over the rats per block. A block (group of 3+n treatments) consists of 1 Intact placebo rat, 1 OVX placebo rat, 1 OVX reference rat and 1 rat of each n treatments.
Sham-operation and ovariectomy are performed under ether anaesthesia. After recovery from the anaesthesia, within 24 h, vehicle, reference compound or test compound is administered once or twice daily for 4 weeks.
Trabecular bone mineral density (mg/cm^3) of the metaphyseal part of the femur was measured with a pQCT (peripheral Quantitative Computed Tomography machine; XCT 960A, Stratec, Birkenfeld, Germany) directly after autopsy on fresh tissue. Two 360° scans, which have, due to the X-ray beam, a standard thickness of 1 mm were taken. The scans have a resolution of 0.148×0.148 mm. One scan was taken at 5.5 mm from the distal end of the femur, where trabecular bone mineral density of the metaphyseal part was measured. The other scan was taken in the diaphysis at 13.5 mm from the distal end, which contains no trabecular bone. In the latter scan cortical bone mineral density and the geometrical parameters, such as cortical thickness, total bone area, outer and inner diameter, were determined. Intra- and inter-assay variation for the measurement of trabecular bone mineral density in the distal femur were about 2-3%. The XCT-960A was calibrated with a standard of hydroxyapatite embedded in acrylic plastic.
Ovariectomy causes a statistically significant decrease in trabecular bone mineral density (P≤0.05, 2 way ANOVA).
The active dose (ED50) is the dose where a mean proportional difference in trabecular bone mineral density between 40 and 60% is reached as compared to the sham and ovariectomised group.
(§1) Several of the compounds according to the Examples I-VI, as well as other compounds according to the invention synthesized in analogous manner, were subjected to the tests described in the Examples VII and VIII. The results are described in the Table, in which the type of A-ring and the substitution at carbon atoms nos. 7, 11, and 17 is indicated. In the columns captioned E and P, the relative binding affinities for the estrogen and progesterone receptors are given; the ED50 results of the AllenDoisy and the McPhail tests have been indicated in μg/kg. In the column captioned "Osteoporosis", the ED50 results of the anti-osteoporosis test are given (dose in μg/kg, day, as described above).

[3] = Allen Doisy test for estrogenic activity in vivo; settings: read-out: AllenDoisy ED50
[4] = target: T1, human estradiol (E) receptor (Homo sapiens, UniProt P03372); assay type: binding
T1 construct: present in human breast tumor cells (MCF-7 cells); endogenous in cells; host or cells: MCF-7 human breast tumor cells
T1 sequence (P03372 1-595): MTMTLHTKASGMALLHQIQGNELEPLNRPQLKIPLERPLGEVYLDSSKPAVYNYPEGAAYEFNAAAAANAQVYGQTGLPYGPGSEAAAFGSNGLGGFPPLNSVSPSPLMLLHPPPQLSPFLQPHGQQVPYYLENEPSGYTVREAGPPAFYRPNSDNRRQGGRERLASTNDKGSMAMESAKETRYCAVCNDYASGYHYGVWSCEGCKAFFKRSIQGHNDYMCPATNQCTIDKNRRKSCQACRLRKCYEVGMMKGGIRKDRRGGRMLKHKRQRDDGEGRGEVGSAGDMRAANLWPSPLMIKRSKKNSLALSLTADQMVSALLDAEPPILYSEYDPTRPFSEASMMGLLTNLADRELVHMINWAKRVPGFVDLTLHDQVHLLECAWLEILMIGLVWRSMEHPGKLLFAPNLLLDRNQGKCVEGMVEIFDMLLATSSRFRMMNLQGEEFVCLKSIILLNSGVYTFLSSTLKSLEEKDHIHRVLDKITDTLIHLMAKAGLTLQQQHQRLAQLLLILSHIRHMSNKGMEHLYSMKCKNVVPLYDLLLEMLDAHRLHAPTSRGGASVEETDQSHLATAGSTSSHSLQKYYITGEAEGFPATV
Protocol: The relative estradiol receptor binding affinity was measured in the same manner as described above but using 17βestradiol as a reference.
as §1

[5] = oral administration, progestagenic activity
[6] = oral administration, ovariectomised rats, once or twice daily for 4 weeks, 40-60% proportional difference in trabecular bone mineral density
[7] = oral administration, estrogenic activity

C[C@H]1C[C@@]2(C)[C@@H](C[C@H]3C[C@H](CN=[N+]=[N-])C[C@]32O)[C@@H]2CCC3=CC(=O)CC[C@@H]3[C@H]21 [Code 38322]
ED50 [1, 5]: 0.063 mg/kg
Relative binding affinity to the human progesterone (P) receptor [2]: 44%
ED50 (ovariectomised rats; [6]): > 1 mg/kg
ED50 [3, 7]: > 0.5 mg/kg

C[C@H]1C[C@@H]2C[C@H]3[C@H]4[C@H](CC[C@]3(C)[C@]2(O)C1)[C@H]1CCC(=O)C=C1C[C@H]4C [Code 38049]
ED50 ([1]; po): 1 mg/kg
Relative binding affinity to the human progesterone (P) receptor [2]: 250%
ED50 (ovariectomised rats; po): > 1 mg/kg
ED50 ([3]; po): > 2 mg/kg

CCC[C@@H]1C[C@@H]2C[C@H]3[C@@H]4CCC5=C(CCC(=O)C5)[C@H]4[C@@H](CC)C[C@]3(C)[C@]2(O)C1 [Code 38151]
ED50 [1, 5]: > 1 mg/kg
Relative binding affinity to the human progesterone (P) receptor [2]: 8%
ED50 [3, 7]: 0.125 mg/kg

CCC[C@@H]1Cc2cc(O)ccc2[C@H]2CC[C@@]3(C)[C@@H](C[C@@H]4C[C@@H](C)C[C@@]43O)[C@H]12 [Code 38513]
Relative binding affinity to the human estradiol (E) receptor [4]: 0.2%
ED50 [1, 5]: > 0.125 mg/kg
ED50 [3, 7]: 2 mg/kg

CCC[C@H]1C[C@@H]2C[C@H]3[C@@H]4CCc5cc(O)ccc5[C@H]4CC[C@]3(C)[C@]2(O)C1 [Code 37969]
Relative binding affinity to the human estradiol (E) receptor [4]: 3%
ED50 [1, 5]: 4 mg/kg
Relative binding affinity to the human progesterone (P) receptor [2]: 25%
ED50 (ovariectomised rats; [6]): > 1 mg/kg
ED50 [3, 7]: > 1 mg/kg

CC[C@H]1C[C@@]2(C)[C@@H](C[C@H]3CCCC[C@]32O)[C@@H]2CCC3=CC(=O)CC[C@@H]3[C@@H]12 [Code 37943]
ED50 ([1]; po): 1 mg/kg
Relative binding affinity to the human progesterone (P) receptor [2]: 96%
ED50 (ovariectomised rats; po): 0.4 mg/kg
ED50 ([3]; po): 0.192 mg/kg

C[C@H]1C[C@@H]2C[C@H]3[C@@H]4[C@H](C)Cc5cc(O)ccc5[C@H]4CC[C@]3(C)[C@]2(O)C1 [Code 37893]
Relative binding affinity to the human estradiol (E) receptor [4]: 38%
ED50 [1, 5]: > 4 mg/kg
Relative binding affinity to the human progesterone (P) receptor [2]: 11%
ED50 (ovariectomised rats; [6]): 0.5 mg/kg
ED50 [3, 7]: 0.5 mg/kg

CCC[C@H]1C[C@@H]2C[C@H]3[C@@H]4CCC5=CC(=O)CC[C@@H]5[C@H]4CC[C@]3(C)[C@]2(O)C1 [Code 37977]
ED50 ([1]; po): 0.5 mg/kg
Relative binding affinity to the human progesterone (P) receptor [2]: 151%
ED50 (ovariectomised rats; po): > 1 mg/kg
ED50 ([3]; po): > 4 mg/kg

CC[C@H]1C[C@@]2(C)[C@@H](C[C@H]3CCCC[C@]32O)[C@@H]2CCc3cc(O)ccc3[C@@H]12 [Code 37862]
Relative binding affinity to the human estradiol (E) receptor [4]: 96%
Relative binding affinity to the human progesterone (P) receptor [2]: 2%
ED50 (ovariectomised rats; [6]): < 0.016 mg/kg
ED50 [3, 7]: 0.032 mg/kg

CCCC[C@@H]1C[C@@H]2C[C@H]3[C@@H]4CCC5=CC(=O)CC[C@@H]5[C@H]4[C@@H](C)C[C@]3(C)[C@]2(O)C1 [Code 38276, (4'R,11-beta,16-beta-17-beta)-4'-butyl-4',5',16,17-tetrahydro-17-hydroxy-11-methyl-3'H-cyclopenta[16,17]estra-4,16-dien-3-one]
ED50 [1, 5]: 0.125 mg/kg
Relative binding affinity to the human progesterone (P) receptor [2]: 115%
ED50 (ovariectomised rats; [6]): > 1 mg/kg
ED50 [3, 7]: > 0.5 mg/kg

CCC[C@@H]1Cc2cc(O)ccc2[C@H]2CC[C@@]3(C)[C@@H](C[C@H]4CCCC[C@]43O)[C@H]12 [Code 38515, (7-alpha,16-alpha,17-alpha)-7-propyl-16,24-cyclo-19,21-dinorchola-1,3,5(10)-trien-3,17-diol]
Relative binding affinity to the human estradiol (E) receptor [4]: 16%
ED50 [1, 5]: 4 mg/kg
Relative binding affinity to the human progesterone (P) receptor [2]: 10%
ED50 (ovariectomised rats; [6]): 0.19 mg/kg
ED50 [3, 7]: 0.096 mg/kg

CCC[C@H]1C[C@@H]2C[C@H]3[C@@H]4CCC5=CC(=O)CC[C@@H]5[C@H]4[C@@H](CC)C[C@]3(C)[C@]2(O)C1 [Code 38577]
ED50 [1, 5]: > 0.5 mg/kg
Relative binding affinity to the human progesterone (P) receptor [2]: 139%
ED50 (ovariectomised rats; [6]): 0.25 mg/kg
ED50 [3, 7]: 0.192 mg/kg

CCC[C@H]1C[C@H]2C[C@H]3[C@@H]4[C@H](C)Cc5cc(O)ccc5[C@H]4CC[C@]3(C)[C@@]2(O)C1 [Code 38079]
Relative binding affinity to the human estradiol (E) receptor [4]: < 1%
Relative binding affinity to the human progesterone (P) receptor [2]: 1%
ED50 [3, 7]: > 4 mg/kg

C[C@H]1C[C@@H]2C[C@H]3[C@@H]4CCC5=CC(=O)CC[C@@H]5[C@H]4CC[C@]3(C)[C@]2(O)C1 [Code 38541]
ED50 ([1]; po): 0.125 mg/kg
Relative binding affinity to the human progesterone (P) receptor [2]: 58%
ED50 (ovariectomised rats; po): > 1 mg/kg
ED50 ([3]; po): > 0.5 mg/kg

C[C@]12CC[C@@H]3C4=C(CC[C@H]3[C@@H]1C[C@H]1CCCC[C@]12O)CC(=O)CC4 [Code 37516]
ED50 [1, 5]: 1 mg/kg
Relative binding affinity to the human progesterone (P) receptor [2]: 13%
ED50 (ovariectomised rats; [6]): > 2 mg/kg
ED50 [3, 7]: > 4 mg/kg

CCC[C@@H]1C[C@@H]2C[C@H]3[C@@H]4CCc5cc(O)ccc5[C@H]4CC[C@]3(C)[C@]2(O)C1 [Code 37968]
Relative binding affinity to the human estradiol (E) receptor [4]: 1%
ED50 [1, 5]: > 4 mg/kg
Relative binding affinity to the human progesterone (P) receptor [2]: 6%
ED50 [3, 7]: > 1 mg/kg

C[C@]12CC[C@H]3[C@@H](CCC4=CC(=O)CC[C@@H]43)[C@@H]1C[C@H]1CCCC[C@]12O [Code 37518]
ED50 ([1]; po): 0.125 mg/kg
Relative binding affinity to the human progesterone (P) receptor [2]: 115%
ED50 (ovariectomised rats; po): > 2 mg/kg
ED50 ([3]; po): > 4 mg/kg

CC[C@H]1C[C@@H]2C[C@H]3[C@@H]4CCC5=CC(=O)CC[C@@H]5[C@H]4[C@@H](CC)C[C@]3(C)[C@]2(O)C1 [Code 38610]
ED50 [1, 5]: > 0.125 mg/kg
Relative binding affinity to the human progesterone (P) receptor [2]: 0.3%
ED50 (ovariectomised rats; [6]): 0.125 mg/kg
ED50 [3, 7]: 0.032 mg/kg

CCC[C@@H]1CC2=CC(=O)CC[C@@H]2[C@H]2CC[C@@]3(C)[C@@H](C[C@H]4C[C@@H](C)C[C@]43O)[C@H]12 [Code 38550]
ED50 [1, 5]: > 0.125 mg/kg
Relative binding affinity to the human progesterone (P) receptor [2]: 36%
ED50 (ovariectomised rats; [6]): 0.125 mg/kg
ED50 [3, 7]: 0.125 mg/kg

C[C@@H]1Cc2cc(O)ccc2[C@H]2CC[C@@]3(C)[C@@H](C[C@H]4CCCC[C@]43O)[C@H]12 [Code 37828]
Relative binding affinity to the human estradiol (E) receptor [4]: 11%
Relative binding affinity to the human progesterone (P) receptor [2]: 10%
ED50 (ovariectomised rats; [6]): 0.5 mg/kg
ED50 [3, 7]: 0.192 mg/kg

Source: patent publication US6313180A, “Steroid compounds having contraceptive and anti-osteoporosis activity” (priority 1997, dated 2001)
